The series in a line: Lubricity durability after incubation in PBS at 70° C. Type of series: physicochemical. The conditions noted are these: PBS at 70° C. for 20 hours. As to the method:
Lacking a direct assay for PEI, an indirect measure of cross-linking effectiveness was selected. This method involved measuring the stability of the cross-linked coating when incubated in PBS at 70° C. for 20 hours. […] It was assumed that this durability was only possible if cross-linking had immobilized the PEI into a cross-linked matrix. PVP which cannot participate in this cross-linking was free to diffuse through the matrix to maintain lubricity. This assumption was further validated when the covalently cross-linked coating tested as non toxic.
Primary amines react readily with epoxides to form a secondary amine alcohol. Therefore, a multifunctional epoxide has the capability of cross-linking PEI into an immobile matrix EGDE (Sigma Chemical, ethylene glycol diglycidyl ether, E27203 50% technical grade) is a diepoxide with this capability. EGDE is readily soluble in water and isopropanol and can be applied to a coated sheath by a simple dip into an EGDE solution. Effectiveness of EGDE as a cross-linker of PEI was evaluated at 0.1% and 0.5% in aqueous and isopropanol solutions. Evidence of cross-linking was determined by the durability of lubricity after incubation in phosphate buffered saline (PBS) for 20+ hours at 70° C.
This test consisted of incubation of 6 inch segments of the coated sheaths in phosphate buffered saline (PBS) in 18×150 mm test tubes at 70° C. for 20-24 hours. […]

With `O=CCCCC=O` [Glutaraldehyde], the “Lubricity after incubation in PBS (lubricity durability)” value is “showed lubricity durability”.
As to polyethyleneglycol diglycidyl ether, the “Lubricity after incubation in PBS (lubricity durability)” value is reported as “showed lubricity durability”.

These data come from patent publication US20080300554A1, “LUBRICANT FOR MEDICAL DEVICES” (APPLIED MEDICAL RESOURCES CORPORATION, priority 2007, published 2008).
